From article PMC11555678, “Improved Broad Spectrum Antifungal Drug Synergies with Cryptomycin, a Cdc50-Inspired Antifungal Peptide” (ACS Infectious Diseases, 2024)
Square brackets hold non-standard residues; d marks the D form. Peptide text beside a SMILES is read from it. * marks the point of attachment. Myristoyl = CCCCCCCCCCCCCC(=O)*; Orn = NCCC[C@H](N)C(=O)O

Key:
Assay type in all cases: cell-based, Cryptococcus neoformans
[1] = system: Cn cdc50Δ; test: microbe, parasite or virus in culture; details: for MIC: 37 °C, 48 h
Procedure: (§1) Previous studies have shown that modifying microbiological media with salts such as CaCl2 can have a drastic effect on the growth of fungi and their responses to antifungals.[19],[35] In the case of CaCl2, the divalent cation, Ca^2+, is involved in fungal cell stress response. To understand how the peptide activity may involve calcium and stress response, the MICs of KKOO, KKOO-NH2, FLC, and CAS were assessed as a function of the calcium concentration in liquid YPD media. It was observed that calcium enrichment completely desensitized the wild-type strain to KKOO and KKOO-NH2, Tables 7 and 8, respectively. Effects of calcium enrichment on the susceptibility of Cryptococcus to CAS similar to literature values were recorded, Supporting Information, Table S7.[35]
(§2) In order to control for the effects of enriching YPD with a divalent cation, MICs and ROS production were also measured as a function of the MgCl2 supplement at the same millimolar concentrations of cation as in the CaCl2-modified experiments. […] No peptide susceptibility changes were observed against Cn cdc50Δ in magnesium-enriched media, Table S9. ROS production in H99 induced by peptide exposure was inhibited after 30 min of treatment in the magnesium-enriched condition, similar to the levels observed in the calcium-enriched media at 16 μg/mL KKOO-NH2, Figure S1. […] The link between peptide activity and calcium homeostasis may be vital in understanding precisely how the peptide kills fungal cells and requires more research to elucidate.
(§3) All microdilution assays with fungi were carried out in accordance with CLSI protocols from M27 for yeasts and M38 for filamentous fungi, respectively, unless otherwise specified.[64],[65] Briefly, 96-well plates were charged with RPMI1640 media, with operating volume in the first column, 200 μL, and half operating volume, 100 μL, in the remaining wells. Drug stock solution in DMSO was aliquoted into the first well in each row. Half of the volume in the dosed well was serially diluted 2-fold until column 11. Column 11 was used as the negative growth control, and column 12 was used as the positive growth control. ON yeast cultures in YPD were washed twice in DD-H2O, resuspended in PBS, and adjusted to 5000 cfu/mL in RPMI. The 96-well plate was inoculated with 100 μL aliquots of cell suspension per well. Plates were incubated at 37 °C for 2 days.

[2] = system: Cn H99; test: microbe, parasite or virus in culture; details: for MIC: 37 °C, 48 h
Procedure: as §1, §2, §3

[3] = system: Cn cdc50Δ; test: Intracellular ROS detection (H2DCFDA, flow cytometry); details: 30 min exposure in YPD
Procedure: (§4) Protocol was carried out in accordance with previously reported methodologies.[35] Yeast cells were grown ON in liquid YPD, washed once in H2O, and resuspended in fresh YPD. The OD600 was adjusted to 0.2 in YPD. Cells were incubated for 3 h at 30 °C, 225 rpm, and then stained with 10 μM H2DCFDA for 2 h at 30 °C, 225 rpm, in the dark. Stained cells were washed twice with DD-H2O and resuspended in the minimal amount of YPD or calcium-enriched YPD needed to inoculate each technical replicate with cells. Each condition was prepared with four technical replicates. In the dark, the stained cells were titrated with KKOO-NH2 from 0.25 to 1× MIC and incubated for 30 min at 30 °C, 225 rpm, in 1 mL of YPD in 12 mL of vented culture tubes. After treatment, cells were transferred to 1.5 mL Eppendorf and centrifuged for 5 min at 2000 rpm. The cells were washed once with 0.5 mL of PBS and resuspended in 0.2 mL of PBS, and stored on ice for live-cell flow analysis, BD FACS Via (Franklyn Lakes, NJ). 100,000 events were recorded, and singlets were gated from SSC-A × FSC-A plot. Mean fluorescence signal intensity from the probe was plotted as a function of peptide concentration. Cells that remained after FACS were pooled based on their condition and imaged under the fluorescence microscope, Zeiss Axioscope 5.

[4] = system: Cn H99; test: as above; details: 30 min exposure in YPD
Procedure: as §4

CCCCCCCCCCCCCC(=O)N[C@@H](Cc1c[nH]c2ccccc12)C(=O)NCC(=O)NCC(=O)N[C@H](C(=O)N[C@@H](CCCN)C(=O)N[C@@H](CCCN)C(=O)N[C@@H](CC(N)=O)C(=O)N[C@@H](Cc1ccc(O)cc1)C(=O)N[C@@H](C)C(N)=O)[C@@H](C)CC [KKOO-NH2] (Myristoyl-WGGI[Orn][Orn]NYA-NH2)
MIC ([1]; YPD + 0 mM Ca2+): 2 µg/mL | MIC ([1]; YPD + 0 mM Mg2+, unit inferred): 4 µg/mL | increase of MIC (largest deviation) ([1]; YPD +0 to +5 mM CaCl2): 4 fold | MIC ([1]; YPD + 2.5 mM Ca2+): 4 µg/mL | MIC ([1]; YPD + 2.5 mM Mg2+, unit inferred): 4 µg/mL | MIC ([1]; YPD + 5 mM Ca2+): 8 µg/mL | MIC ([1]; YPD + 5 mM Mg2+, unit inferred): 4 µg/mL | MIC ([1]; YPD + 10 mM Ca2+): 8 µg/mL | MIC ([1]; YPD + 10 mM Mg2+, unit inferred): 4 µg/mL | MIC ([1]; YPD + 20 mM Ca2+): 4 µg/mL | MIC ([1]; YPD + 20 mM Mg2+, unit inferred): 4 µg/mL | MIC ([2]; YPD + 0 mM Ca2+): 8 µg/mL | MIC ([2]; YPD + 0 mM Mg2+): 8 µg/mL | increase of MIC ([2]; YPD +0 to +2.5 mM CaCl2): 16 fold | increase of MIC ([2]; YPD +0 to +20 mM MgCl2): 4 fold | MIC ([2]; YPD + 2.5 mM Ca2+): 128 µg/mL | MIC ([2]; YPD + 2.5 mM Mg2+): 8 µg/mL | MIC ([2]; YPD + 5 mM Ca2+): >128 µg/mL | MIC ([2]; YPD + 5 mM Mg2+): 16 µg/mL | MIC ([2]; YPD + 10 mM Ca2+): >128 µg/mL | MIC ([2]; YPD + 10 mM Mg2+): 16 µg/mL | MIC ([2]; YPD + 20 mM Ca2+): >128 µg/mL | MIC ([2]; YPD + 20 mM Mg2+): 32 µg/mL | lowest peptide concentration with elevated ROS production [3]: 1 µg/mL | lowest peptide concentration with elevated ROS production [4]: 4 µg/mL
